For 33 molecules, IC50 results are on record in patent US5716993A, “Anthranilic acid derivatives” (Eisai Co., Ltd., priority 1993, dated 1998).

The test has as its target T1, cGMP-PDE prepared from porcine aorta (Sus scrofa, UniProt A0A287B475).
T1 construct: The enzyme activity of CGMP-PDE prepared from porcine aorta was determined; from tissue; host or cells: porcine aorta, 100,000×g supernatant, DEAE-Toyopearl 650S fractions
The test can be described thus: Enzyme inhibitory activity using cGMP-PDE prepared from porcine aorta. It counts as biochemical. As to conditions: CaM-independent cGMP-PDE fractions from porcine aorta; 1 μM cGMP substrate, 1 mM EGTA, DMSO 4% or below. How it is done: Enzyme Inhibitory activity using cGMP-PDE prepared from porcine aorta
The enzyme activity of CGMP-PDE prepared from porcine aorta was determined according to the method of Thompson et al. This determination was conducted in the presence of 1 mM EGTA by the use of 1 μM cGMP as the substrate. Each compound according to the present invention was dissolved in DMSO and added to the reaction system to determine the inhibitory activity thereof. The final concentration of DMSO in the reaction system was adjusted to 4% or below.
The cGMP-PDE was prepared as follows:
Porcine aorta was cut into fine pieces, followed by the addition of 10 times by volume as much buffer A (20 mM Tris/HCl, 2 mM Mg acetate, 1 mM dithiothreitol, 5 mM EDTA, 1400TIU/1 aprotinin, 10 mg/1 leupeptin, 1 mM benzamidine, 0.2 mM PMSF, pH7.5). The obtained mixture was homogenized and centrifuged at 100,000×g for one hour. The obtained supernatant was placed on a column of DEAE-Toyopearl 650S (a product of Tosoh, Tokyo, Japan), followed by the washing of the column with buffer B (50 mM Tris/HCl, 0.1 mM EGTA, 2 mM Mg acetate, 1 mM Dithiothreitol, 0.2 mM PMSF, pH7.5). The resulting column was subjected to gradient elution with 0.05 to 0.4M sodium chloride to obtain CaM-independent cGMP-PDE fractions.
With `O=C(Nc1ccc(Cl)cc1C(=O)NCc1ccc2c(c1)OCO2)c1ccncc1` [Example 9, 5-Chloro-N-(3,4-methylenedioxybenzyl)-2-(isonicotinoylamino)benzamide], the IC50 (in general, the concentration that gives 50% inhibition) is 28.8 nM. As for `O=C(NCc1ccc2c(c1)OCO2)c1cc(Cl)ccc1NC(=O)C1CCCCC1` [Example 19, 5-Chloro-2-[(cyclohexanecarbonyl)amino]-N-(3,4-methylenedioxybenzyl)benzamide], the figure is 16.6 nM.

On to `O=C(NCc1ccc2c(c1)OCO2)c1cc(Cl)ccc1NCc1ccncc1` [Example 33, 5-Chloro-N-(3,4-methylenedioxybenzyl)-2-(4-picolyl)aminobenzamide], for which the half-maximal inhibitory concentration (IC50) was 20.5 nM.

`O=C(NCc1ccc2c(c1)OCO2)c1cc(Cl)ccc1NC(=O)N1CCC(C(=O)O)CC1` [Example 38, 1-[[4-Chloro-2-[(3,4-methylenedioxybenzyl)carbamoyl]phenyl]carbamoyl]piperidine-4-carboxylic acid] registered an IC50 of 6.7 nM. As for `O=C(NCc1ccc2c(c1)OCO2)c1cc(Cl)ccc1NC(=O)[C@H]1CC[C@H](C(=O)O)CC1` [Example 39, 2-(trans-4-Carboxycyclohexanecarbonyl)amino-5-chloro-N-(3,4-methylenedioxybenzyl)benzamide], the figure is 3.2 nM. `O=C(O)c1ccc(C(=O)Nc2ccc(Cl)cc2C(=O)NCc2ccc3c(c2)OCO3)cc1` [Example 41, 2-(4-Carboxybenzoyl)amino-5-chloro-N-(3,4-methylenedioxybenzyl)benzamide] returned an IC50 of 1.4 nM. As for `COc1ccc(CNC(=O)c2cc(Cl)ccc2NC(=O)N2CCC(C(=O)O)CC2)cc1Cl` [Example 43], the figure is 0.9 nM.

In the case of `O=C(O)/C=C/C(=O)Nc1ccc(Cl)cc1C(=O)NCc1ccc2c(c1)OCO2` [Example 44, 2-(3-Carboxyacryoyl)amino-5-chloro-N-(3,4-methylenedioxybenzyl)benzamide], the IC50 worked out at 79.8 nM. As for `O=C(NCc1ccc2c(c1)OCO2)c1cc(Br)ccc1NC(=O)[C@H]1CC[C@H](C(=O)O)CC1` [Example 45, 5-Bromo-2-(trans-4-carboxycyclohexanecarbonyl)amino-N-(3,4-methylenedioxybenzyl)benzamide], the figure is 0.7 nM; as for `O=C(NCc1ccc2c(c1)OCO2)c1cc(Cl)ccc1NC[C@H]1CC[C@H](C(=O)O)CC1` [Example 47], 5.3 nM. For `COc1ccc(CNC(=O)c2cc(C#N)ccc2NC(=O)N2CCC(O)CC2)cc1Cl` [Example 74, 1-[[2-[(3-Chloro-4-methoxybenzyl)carbamoyl]-4-cyanophenyl]carbamoyl]-4-hydroxypiperidine] the value was 2.4 nM.

In the case of `COc1ccc(CNC(=O)c2cc(C#N)ccc2NC(=O)c2ccncc2)cc1Cl` [Example 80, N-(3-Chloro-4-methoxybenzyl)-5-cyano-2-(isonicotinoylamino)benzamide], the IC50 is 11.9 nM. As for `COc1ccc(CNC(=O)c2cc(Br)ccc2NC(=O)c2ccncc2)cc1Cl` [Example 81], the figure is 14.5 nM; as for `COc1ccc(CNC(=O)c2cc(C#N)c(OC)cc2NC(=O)c2ccncc2)cc1Cl` [Example 83, N-(3-Chloro-4-methoxybenzyl)-5-cyano-2-(isonicotinoylamino)-4-methoxybenzamide], 12.6 nM; as for `O=C(Nc1ccc(Br)cc1C(=O)NCc1ccc2c(c1)OCO2)c1ccncc1` [Example 85, 5-Bromo-2-(isonicotinoylamino)-N-(3,4-methylenedioxybenzyl)benzamide], 21.7 nM. For `COc1ccc(CNC(=O)c2cc(C#N)ccc2NC(=O)[C@H]2CC[C@H](O)CC2)cc1Cl` [Example 109, N-(3-Chloro-4-methoxybenzyl)-5-cyano-2-[(trans-4-hydroxycyclohexanecarbonyl)amino]benzamide] the value was 4.4 nM; for `COc1ccc(CNC(=O)c2cc(C#N)ccc2NC(=O)[C@H]2CC[C@H](C(=O)O)CC2)cc1Cl` [Example 110, 2-[(trans-4-Carboxycyclohexanecarbonyl)amino]-N-(3-chloro-4-methoxybenzyl)-5-cyanobenzamide], 0.7 nM; for `COc1ccc(CNC(=O)c2cc(Br)ccc2NC(=O)N2CCC(C(=O)O)CC2)cc1Cl` [Example 111, 1-[[4-Bromo-2-[(3-chloro-4-methoxybenzyl)carbamoyl]phenyl]carbamoyl]piperidine-4-carboxylic acid], 2 nM. For `COc1ccc(CNC(=O)c2cc(Cl)ccc2NC(=O)[C@H]2CC[C@H](C(=O)O)CC2)cc1Cl` [Example 112, 2-[(trans-4-Carboxycyclohexanecarbonyl)amino]-5-chloro-N-(3-chloro-4-methoxybenzyl)benzamide], the IC50 came out at 5.3 nM. Molecule `COc1ccc(CNC(=O)c2cc(Br)ccc2NC(=O)[C@H]2CC[C@H](C(=O)O)CC2)cc1Cl` [Example 113, 5-Bromo-2-[(trans-4-carboxycyclohexanecarbonyl)amino]-N-(3-chloro-4-methoxybenzyl)benzamide] had a 50% inhibitory concentration (IC50) of 0.4 nM.

For `COc1ccc(CNC(=O)c2cc([N+](=O)[O-])ccc2NC(=O)[C@H]2CC[C@H](C(=O)O)CC2)cc1Cl` [Example 114, 2-[(trans-4-Carboxycyclohexanecarbonyl)amino]-N-(3-chloro-4-methoxybenzyl)-5-nitrobenzamide], it took 1.7 nM to reach half-maximal inhibition (IC50). As for `COc1ccc(CNC(=O)c2cc(Br)c(OC)cc2NC(=O)[C@H]2CC[C@H](C(=O)O)CC2)cc1Cl` [Example 115, 5-Bromo-2-[(trans-4-carboxycyclohexanecarbonyl)amino]-N-(8-chloro-4-methoxybenzyl)-4-methoxybenzamide], the figure is 24.8 nM; as for `COc1ccc(CNC(=O)c2cc(C#N)c(OC)cc2NC(=O)[C@H]2CC[C@H](C(=O)O)CC2)cc1Cl` [Example 116], 2.9 nM; as for `COc1ccc(CNC(=O)c2cc(S(=O)(=O)N(C)C)ccc2NC(=O)[C@H]2CC[C@H](C(=O)O)CC2)cc1Cl` [Example 117, 2-[(trans-4-Carboxycyclohexanecarbonyl)amino]-N-(3-chloro-4-methoxybenzyl)-5-dimethylsulfamoylbenzamide], 11.5 nM.

Consider `COc1ccc(CNC(=O)c2cc(Cl)ccc2NC(=O)[C@H]2CC[C@H](C(=O)O)CC2)cc1C#N` [Example 120, 2-[(trans-4-Carboxycyclohexanecarbonyl)amino]-5-chloro-N-(3-cyano-4-methoxybenzyl)benzamide], for which inhibition was half-maximal at 21.5 nM (IC50).

`COc1cc(CNC(=O)c2cc(Cl)ccc2NC(=O)[C@H]2CC[C@H](C(=O)O)CC2)ccc1Cl` [Example 121, 2-[(trans-4-Carboxycyclohexanecarbonyl)amino]-5-chloro-N-(4-chloro-3-methoxybenzyl)benzamide] showed a half-inhibitory concentration (IC50) of 7.7 nM. For `O=C(NCc1ccc2c(c1)OCO2)c1cc(Br)ccc1NC(=O)N1CCC(C(=O)O)CC1` [Example 122] the value was 5 nM. For `O=C1c2c(NC(=O)[C@H]3CC[C@H](C(=O)O)CC3)ccc(Br)c2CN1Cc1ccc2c(c1)OCO2` [Example 123, 4-Bromo-7-[(trans-4-carboxycyclohexanecarbonyl)amino]-N-(3,4-methylenedioxybenzyl)isoindoline-1-one] the value was 6.1 nM; for `O=C(NCc1ccc2c(c1)OCO2)c1cc(OC(F)(F)F)ccc1NC(=O)[C@H]1CC[C@H](C(=O)O)CC1` [Example 125, 2-[(trans-4-Carboxycyclohexanecarbonyl)amino]-N-(3,4-methylenedioxybenzyl)-5-trifluoromethoxybenzamide], 19.2 nM; for `O=C(NCc1ccc2c(c1)OCO2)c1cc(-n2cccn2)ccc1NC(=O)[C@H]1CC[C@H](C(=O)O)CC1` [Example 126, 2-[(trans-4-Carboxycyclohexanecarbonyl)amino]-N-(3,4-methylenedioxybenzyl)-5-(1-pyrazolyl)benzamide], 2.9 nM. For `COc1cc(NC(=O)[C@H]2CC[C@H](C(=O)O)CC2)c(C(=O)NCc2ccc3c(c2)OCO3)cc1Br` [Example 129, 5-Bromo-2-[(trans-4-carboxycyclohexanecarbonyl)amino]-4-methoxy-N-(3,4-methylenedioxybenzyl)benzamide] the value was 36.8 nM. For the molecule `COc1ccc(CNC(=O)c2cc(C#N)ccc2NC(=O)[C@@H]2CCC(=O)O2)cc1Cl` [Example 136, N-(3-Chloro-4-methoxybenzyl)-5-cyano-2-[((S)-5-oxo-2-tetrahydrofurancarbonyl)amino]benzamide], the half-maximal inhibitory concentration (IC50) was 18.1 nM.

The molecule `COc1ccc(CNC(=O)c2cc(Br)c(N)cc2NC(=O)[C@H]2CC[C@H](C(=O)O)CC2)cc1Cl` [Example 141, 4-Amino-5-bromo-2-[(trans-4-carboxycyclohexanecarbonyl)amino]-N-(3-chloro-4-methoxybenzyl)benzamide] gave a 50% inhibitory concentration (IC50) of 7.2 nM.
